The values below come from publication PMC5471521, “Novel selective β1-adrenoceptor antagonists for concomitant cardiovascular and respiratory disease” (The FASEB Journal, 2017).

One series concerns the target T1, human β2-AR (Homo sapiens, UniProt P07550).
T1 construct: expressed in transfected cells
The experiment in a line: 3H-CGP12177 whole-cell binding in CHO-β2 cells. The settings on record: mean ± SEM, cells marked ^a are apparent log Kd (specific binding not fully inhibited).

In another series the target is T2, human β3-AR (Homo sapiens, UniProt P13945).
T2 construct: expressed in transfected cells
Nature of the series: Antagonism of cimaterol-induced 3H-cAMP accumulation in CHO-β3 cells. The series is classed as cell-based. Particulars: cimaterol agonist, mean ± SEM, read-out: Log Kd,β3 (converted). The method, then:
Confluent cells were examined (24-well plates, 5 h incubation at 37°C) as described in Baker ([45]). Antagonist Kd values were calculated from a rightward shift of the agonist concentration response curve by using the Gaddum equation as previously described ([46]).
A general note: Changes in cAMP serve as a functional read-out for many G protein-coupled receptors.

For a further series, the target named is T3, human β1-AR (Homo sapiens, UniProt P08588).
T3 construct: expressed in transfected cells
Nature of the series: Duration of ligand binding (washout, 3H-CGP12177 whole-cell binding in CHO-β1 cells). Particulars: greater shift = shorter duration of binding; mean ± SEM. On the procedure: A method that involved ligand washout was used as described ([44]). Cells were incubated with either competing ligand and ^3H-CGP12177 for 2 h (control plate), or competing ligand alone for 2 h (duration plate). After 2 h, the control plate was processed while the duration plate was washed, and ^3H-CGP12177 alone was added to wells and incubated for a second 2 h before processing. […] Relative measures of ligand duration of binding are indicated by the degree of rightward shift of displacement curves ([44]).

A short description of series [1]: Aqueous solubility by nephelometry. The series is classed as physicochemical. Particulars: kinetic from dmso stock. On the procedure:
NDD-713.HCl and -825.HCl were added to either aqueous phosphate buffer (pH 6.5) or 0.01 M aqueous HCl (pH ∼2) at final DMSO concentrations of 1%. Samples were analyzed by nephelometry to determine solubility ranges ([48]). Studies were carried out by the Centre for Drug Candidate Optimisation (CDCO; Monash University, Melbourne, VIC, Australia).

A short description of series [2]: Protein binding by ultracentrifugation, rat plasma. The settings on record: male, Sprague-Dawley, read-out: fu rat plasma. Format: in vitro ADME. The method, then:
Protein binding of 1 µM NDD-713.HCl and -825.HCl in human and rat plasma, as well as human liver microsomes, was assessed by using the ultracentrifugation technique. Frozen human plasma (Australian Red Cross Blood Service, Melbourne, VIC, Australia) and rat plasma (male Sprague-Dawley rats; Charles River, Margate, Kent, United Kingdom) were thawed at 37°C. Human liver microsomes (XenoTech) were suspended in 0.1 M phosphate buffer (pH 7.4) at protein concentrations of 0.4 mg/ml. Samples were collected immediately as stability reference controls. Spiked plasma samples (but not microsome samples) were incubated at 37°C for 1 h. […] NDD-713.HCl and -825.HCl concentrations of noncentrifuged matrix and protein-free supernatant were determined by UPLC-MS relative to calibration standards prepared in the respective matrices. Total concentration (Ctotal) was the average measured concentration in […] samples maintained at 37°C, and unbound concentration (Cunbound) was the average measured concentration in protein-free supernatants from centrifuged samples (n = 3). The compound unbound fraction (fu) was calculated: fu = Cunbound/Ctotal. Compound degradation was assessed by comparing concentrations in noncentrifuged plasma samples that were incubated at 37°C with concentrations measured in the t = 0 noncentrifuged samples. […]

A further series deals with T4, CYP3A4 (Homo sapiens, UniProt P08684).
T4 construct: purchased BD Biosciences
Nature of the series: P450 in vitro clearance, recombinant Supersomes. Particulars: 2 μM, hydrochloride salts used. The series is classed as in vitro ADME. The method, then:
NDD-713.HCl and -825.HCl (2 μM) and cytochrome P450 (P450) reference substrates (see Supplemental Data for full details) were incubated (37°C) with selected recombinant human P450 isoforms (CYP1A2, CYP2A6, CYP2B6, CYP2C8, CYP2C9, CYP2C19, CYP2D6 CYP2E1, and CYP3A4) in heterologously expressed P450 Supersomes (BD Biosciences) that were suspended in […] Tris-HCl buffer (pH 7.4; for CYP2C9) or 100 mM phosphate buffer (pH 7.4; for the other isoforms) at final P450 concentrations of 85 pmol/ml. Reactions were initiated by additions of an NADPH-regenerating system and quenched at time points over 60 min (reference probes) or 120 min (test compounds) by acetonitrile. Quenched samples were centrifuged and supernatants were collected. NDD-713, -825, and probe metabolites were determined by UPLC-MS relative to calibration standards prepared in quenched matrix, and %substrate that remained was calculated relative to the initial sample concentration. The %substrate that remained vs. time was fitted to exponential decay functions to determine the pseudo first-order rate constant (k/min) for substrate depletion. These were normalized to P450 concentrations (pmol/ml) to obtain in vitro CLint values: CLint, in vitro (μl/min/pmol P450) = [k (min^−1)/P450 concentration […]] × 1000. Studies were carried out by CDCO.

A further series relates to β1-AR vs. β2-AR. The experiment in a line: Calculation of selectivity indices (receptor occupancy, PK-pharmacodynamic ternary complex model). Particulars: human, exercise HR vs FEV1, ternary complex model.
Series [3] can be described thus: Seven-day oral dose range rat toxicity study. Format: in vivo. On the procedure:
Male Crl:CD rats (9 wk old, weighing 316.8–349.4 g on d 1; Charles River) were administered 1 oral dose of NDD-825.HCl in water that contained 0.5% (w/v) hydroxypropylmethylcellulose K15M, 0.5% (v/v) benzyl alcohol, and 0.4% (v/v) Tween-80 at 20, 90, or 300 mg/kg at a dose volume of 10 ml/kg for 7 consecutive days (4 animals per group). Blood samples were collected before and at time points during the 24 h that followed for bioanalysis. Animals were monitored for adverse clinical signs and body weight. Terminal blood samples were taken for clinical chemistry, and organs were harvested for microscopic examination (see Supplemental Data for full details). Three additional male rats per group received NDD-825.HCl on d 1 only to collect blood samples for plasma bioanalysis of compound toxicokinetics. NDD-825 was quantifiable in plasma of all animals up to 8 h after dose administration; […]. Systemic exposure to NDD-825 in terms of Cmax increased in approximate proportion with increasing dose, whereas for the same dose increase, AUC0-t increased in a supraproportional manner across the entire dose range. […]. […] Study was carried out by Aptuit (Verona, Italy).

[4] abbreviates: 0.01 M aqueous HCl, simulated gastric fluid, pH 2.0, hydrochloride salts used, read-out: Aqueous solubility Saq at pH 2.0.
[5] abbreviates: aqueous phosphate buffer, aqueous buffer, pH 6.5, hydrochloride salts used, read-out: Aqueous solubility Saq at pH 6.5.

Like-named read-outs stand apart in the source and are kept apart here.

T4 sequence (P08684 whole entry): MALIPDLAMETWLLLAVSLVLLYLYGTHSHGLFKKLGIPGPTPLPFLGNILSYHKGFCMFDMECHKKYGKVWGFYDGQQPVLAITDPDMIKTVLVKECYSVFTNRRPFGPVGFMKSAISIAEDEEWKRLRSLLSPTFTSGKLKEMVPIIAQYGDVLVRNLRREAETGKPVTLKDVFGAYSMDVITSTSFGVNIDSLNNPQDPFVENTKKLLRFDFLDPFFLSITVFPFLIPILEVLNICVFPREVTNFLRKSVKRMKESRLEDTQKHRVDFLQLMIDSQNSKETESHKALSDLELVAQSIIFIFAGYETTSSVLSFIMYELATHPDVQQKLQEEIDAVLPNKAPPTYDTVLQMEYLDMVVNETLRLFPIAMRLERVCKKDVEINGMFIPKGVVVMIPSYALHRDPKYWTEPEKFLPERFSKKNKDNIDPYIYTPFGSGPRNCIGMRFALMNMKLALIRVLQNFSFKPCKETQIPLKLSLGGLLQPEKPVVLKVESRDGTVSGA
T2 sequence (P13945 whole entry): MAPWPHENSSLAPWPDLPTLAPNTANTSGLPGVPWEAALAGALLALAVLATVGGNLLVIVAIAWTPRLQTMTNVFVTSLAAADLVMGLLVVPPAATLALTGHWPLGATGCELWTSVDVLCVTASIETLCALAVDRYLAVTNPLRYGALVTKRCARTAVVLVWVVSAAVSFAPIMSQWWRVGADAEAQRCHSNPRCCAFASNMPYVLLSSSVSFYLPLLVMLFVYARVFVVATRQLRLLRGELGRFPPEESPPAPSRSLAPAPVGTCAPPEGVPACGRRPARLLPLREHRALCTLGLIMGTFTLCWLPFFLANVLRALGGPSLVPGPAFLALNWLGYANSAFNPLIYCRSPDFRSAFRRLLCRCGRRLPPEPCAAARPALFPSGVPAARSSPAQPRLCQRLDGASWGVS
T3 sequence (P08588 whole entry): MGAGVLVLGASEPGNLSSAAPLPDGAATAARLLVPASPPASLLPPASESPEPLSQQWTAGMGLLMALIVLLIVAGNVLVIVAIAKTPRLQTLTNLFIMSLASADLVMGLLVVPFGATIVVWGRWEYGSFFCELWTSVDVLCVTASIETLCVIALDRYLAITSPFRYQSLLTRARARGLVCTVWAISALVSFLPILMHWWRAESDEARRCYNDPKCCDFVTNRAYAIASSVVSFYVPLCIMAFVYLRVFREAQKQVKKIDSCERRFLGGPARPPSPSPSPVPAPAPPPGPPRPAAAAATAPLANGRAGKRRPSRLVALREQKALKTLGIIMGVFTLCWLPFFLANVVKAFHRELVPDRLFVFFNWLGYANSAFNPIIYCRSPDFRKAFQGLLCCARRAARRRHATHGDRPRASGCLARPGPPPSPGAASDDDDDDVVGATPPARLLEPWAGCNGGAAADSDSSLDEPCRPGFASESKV
T1 sequence (P07550 whole entry): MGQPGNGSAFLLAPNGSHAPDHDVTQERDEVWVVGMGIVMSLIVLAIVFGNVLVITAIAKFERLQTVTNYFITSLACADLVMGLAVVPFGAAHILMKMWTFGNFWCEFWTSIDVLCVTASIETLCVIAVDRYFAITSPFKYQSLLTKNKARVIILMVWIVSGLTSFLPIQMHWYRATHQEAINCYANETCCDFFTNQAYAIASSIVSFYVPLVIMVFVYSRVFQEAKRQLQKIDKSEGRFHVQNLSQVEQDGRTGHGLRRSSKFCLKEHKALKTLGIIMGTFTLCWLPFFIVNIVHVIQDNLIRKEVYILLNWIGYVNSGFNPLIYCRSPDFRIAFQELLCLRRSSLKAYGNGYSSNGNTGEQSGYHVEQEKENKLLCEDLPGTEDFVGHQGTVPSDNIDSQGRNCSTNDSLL

As usually defined, the solubility is how much of the substance goes into solution per volume. With `NC(=O)c1ccc(OCCNC[C@H](O)COc2ccc3c(c2)OC[C@@H](COCC2CC2)O3)cc1` [NDD-713], the Kd was 8.91 µM on human β2-AR and 3.39 µM at human β3-AR. In addition, the “Log shift (rightward shift of washout curve vs control)” value on human β1-AR was determined as 1.75 ± 0.08. For the same molecule, the solubility was greater than 100 µg/mL in series [1] (setting [4]) and 25 to 50 µg/mL in series [1] (setting [5]). Also, in series [2], the fraction unbound at 1 h, 1 µM was determined as 0.16. On CYP3A4, the “P450 in vitro clearance CLint, CYP3A4” value is 0.07 μl/min/pmol P450. For the same molecule, the “SI3 (in vivo pharmacologic response) = Eβ1/Eβ2” value in the series on β1-AR vs. β2-AR is given as 67.

One may read the Tmax as the time at which the peak concentration occurs. `O=C1NCc2cc(OCCNC[C@H](O)COc3ccc4c(c3)OC[C@@H](COCC3CC3)O4)ccc21` [NDD-825]: the Kd on human β2-AR was 5.37 µM; at human β3-AR it was 1.91 µM. Also, the “Log shift (rightward shift of washout curve vs control)” value at human β1-AR was determined as 1.62 ± 0.11. The figures for the solubility in series [1] (setting [4]) and in series [1] (setting [5]) were greater than 100 µg/mL and 50 to 100 µg/mL, respectively. For the same molecule, in series [2], the fraction unbound at 1 h, 1 µM worked out at 0.11. For the same molecule, at CYP3A4, the “P450 in vitro clearance CLint, CYP3A4” value was 0.17 μl/min/pmol P450. In addition, the Tolerability entry in series [3] (300 mg/kg once daily p.o. for 7 d (highest dose tested)) is “well tolerated”. In addition, the Change in triglycerides entry in series [3] (7-d repeat oral dosing, top dose) is recorded as “dose-related increase in triglycerides”. In addition, in series [3] (male, Crl:CD, in vivo, 7-d repeat oral dosing, read-out: Maximum tolerated dose), the MTD at 7 d was greater than 300 mg/kg/day. Moreover, the Tmax in series [3] (male, Crl:CD, plasma, oral 20, 90 or 300 mg/kg, read-out: tmax (toxicokinetics)) lay within 2 to 8 h. In addition, the “Increase of AUC0-t for a 15-fold increase in dose” value in series [3] (oral, 20 to 300 mg/kg/d) amounted to 31.4 fold. Also, the “Increase of Cmax for a 15-fold increase in dose” value in series [3] (oral, 20 to 300 mg/kg/d) worked out at 12.4 fold. The “SI3 (in vivo pharmacologic response) = Eβ1/Eβ2” value in the series on β1-AR vs. β2-AR is on record as 81.
